Converted amounts (≈) assume the structure as drawn.
Tests used:
[1] = system: Experimental Autoimmune Encephalomyelitis (EAE) model; test: Experimental autoimmune encephalomyelitis model; assay type: in vivo, C57BL/6 female mice
Experimental: EAE was induced in C57BL/6 female mice at 6-8 weeks of age by subcutaneous immunization with MOG35-55 (300 μg: peptide synthesis section, CBM, CSIC. Madrid, Spain) and 200 μg of Mycobacterium tuberculosis (H37Ra Difco, Franklin Lakes, N.J., USA) in a 1:1 mix with […]. On the same day and 2 days later, mice were injected intraperitoneally with 200 ng of pertussis toxin (Sigma) in 0.1 mL PBS. […] The mice were examined daily for clinical signs of EAE and disease scores were measured as follows: 0, no disease; 1, limb tail; 2, limb tail and hind limb weakness; 3, hind limb paralysis; 4, hind limb and front limb paralysis; 5, moribund and death. All animals were sacrificed at 28 days for further analysis,
Mice were anesthetized by i.p. administration with a ketamine-xylazine solution and they were transcardially perfused with saline 0.9%. The spinal cord was obtained by extrusion with saline. […]
For IHC analysis, free-floating thoracic spinal cord (50 μm) sections were washed with 0.1M PB. […] Samples were photographed, digitalized using a Leica DFC420c camera and analyzed using Image J software. Myelin integrity was analyzed using the Hito CryoMyelmStain™ Kit (Gold phosphate complex Myelin Staining Kit) following manufacturer's recommendation (Hitobiotech Corp., Kingsport, Tenn., USA). […]

[2] = physchem; assay type: physicochemical; conditions: oil or lipid
Experimental: The solubility of a compound is an important factor in determining its absorption from the gastrointestinal tract and ultimately its oral bioavailability. First it was determined the solubility of VCE-004.8 in a collection of different solvents (e.g., aqueous, lipidic, organic, etc.). Additionally, a test of stability of VCE-004.8 in selected solvents was also used as a criterion for selection of the best solvents.

[3] = in vitro; assay type: in vitro ADME; conditions: plasma
[4] = biological target: CB1 receptor (Homo sapiens, UniProt P21554); test: Receptor screening study, CB1 receptor affinity; assay type: binding
[5] = Solvent shift method in SGF and SIF; assay type: physicochemical; conditions: for API concentration in solution: SIF
Experimental: These experiments applied to a 5 mg/mL solution of VCE-004.8 in DMSO, of which 80 μL was added to 4 mL polymer solutions prepared in simulated intestinal fluid (SIF) and simulated gastric fluid (SGF). Subsequently the samples were incubated at 25° C. under continuous stirring, and after 0.5, 1, 2 and 4 hr, an aliquot was taken, filtered and analyzed by HPLC to determine the VCE-004.8 concentration in solution. Results are presented in FIG. 11 (SGF) and FIG. 12 (SIF).

[6] = Turbidimetric aqueous solubility (estimated precipitation range); assay type: physicochemical; conditions: aqueous solubility test at 37° C.
[7] = Solubility of VCE-004.8 and its phytosomes in buffer medium at various pH; assay type: physicochemical; conditions: 37 °C, thermodynamic from solid
Experimental: The solubility of Phytosome-VCE-004.8 was tested in buffer medium at various pH (1.2, 4, 5, 6, […] and 8.0). For each pH, independent supersaturated solutions of VCE-004.8 and its phytosomes were prepared. The suspensions w ere sonicated for 10 min and kept in a water bath at 37° C. for 2 hr. Then the final suspensions were filtered (with 0.45 PTFE disposable fitter) and the solutions were injected for HPLC analysis. […] The 1:2 ratio resulted to be slightly more soluble than the 1:1 ration, and the best behavior was shown at neutral and basic pH. Accordingly. Phytosome 1:2 was selected for following assessment of PK profile in rats (Formulation n°8). Phytosome 1:2 contained 24% of VCE-004.8 and was prepared in Methyl cellulose 1% in water for oral administration.

Sequence of CB1 receptor (P21554 whole entry): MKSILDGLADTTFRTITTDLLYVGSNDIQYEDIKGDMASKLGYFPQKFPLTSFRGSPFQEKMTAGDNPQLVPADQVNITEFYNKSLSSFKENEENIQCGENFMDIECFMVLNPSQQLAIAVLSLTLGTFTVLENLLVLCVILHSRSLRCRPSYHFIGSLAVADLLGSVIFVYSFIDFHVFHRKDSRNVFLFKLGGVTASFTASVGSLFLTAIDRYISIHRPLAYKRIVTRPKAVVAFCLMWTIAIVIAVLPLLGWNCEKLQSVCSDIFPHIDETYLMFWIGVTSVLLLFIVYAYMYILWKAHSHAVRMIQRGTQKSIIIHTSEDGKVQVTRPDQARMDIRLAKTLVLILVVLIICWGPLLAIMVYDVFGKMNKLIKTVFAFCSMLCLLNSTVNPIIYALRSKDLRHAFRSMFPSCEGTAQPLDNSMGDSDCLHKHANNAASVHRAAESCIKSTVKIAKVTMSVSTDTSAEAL

With C=C(C)C1CCC(C)=C[C@H]1C1=C(O)C(=O)C(CCCCC)=C(NCc2ccccc2)C1=O (stereo partly drawn) [VCE-004.8, (1′R,6′R)-3-(Benzylamine)-6-hydroxy-3′-methyl-4-pentyl-6′-(prop-1-en-2-yl)[1,1′-bi(cyclohexane)]-2′,3,6-triene-2,5-dione] the “microglial reactivity and infiltration of inflammatory cells” value ([1]; EAE animals, myelin structure preserved) was “significantly reduced”, the “therapeutic effect in EAE model” value ([1]; doses of 5 mg/kg, 10 mg/kg, and 20 mg/kg) was “highly significant therapeutic effect” and the solubility ([2]; 25 °C) was 17700 µg/mL (≈ 40800 µM). The solubility ([2]; 37 °C) was 34500 µg/mL (≈ 79600 µM), the fraction unbound [3] was less than 0.01 and the “affinity for the CB1 receptor” value ([4]; at a concentration of 10 μM (4336 ng/mL)) was “did not show affinity”. The “affinity for the CB1 receptor” value ([4]; receptor screening study) was “no detectable affinity”, the “VCE-004.8 concentration in solution” value ([5]; SGF, TGPS solution, after 4 hr, 25° C.) was “about 0.03 mg-mL” and the “API concentration in solution” value ([5]; Eudragit L100, supersaturation for at least 1 hr) was “approximately 60 μg/mL”. The “API concentration in solution” value ([5]; PVP K30, supersaturation for at least 1 hr) was “approximately 60 μg/mL”, the “API concentration in solution” value ([5]; all the HPMC derivates (except for HPMC as is), from 0.5 to 1 hr) was “approximately 60 μg/mL” and the “Estimated Precipitation Range, Calculated Mid-range” value [6] was less than 6.5 µM. The “Estimated Precipitation Range, Lower Bound” value [6] was less than 1 µM, the “Estimated Precipitation Range, Upper Bound” value [6] was 6.5 µM and the solubility thermodynamic at 2 h ([7]; pH 1.2, simulated gastric fluid) was 0.005 µg/mL (≈ 0.0115 µM). The solubility thermodynamic at 2 h ([7]; pH 4.5, aqueous buffer) was 0.005 µg/mL (≈ 0.0115 µM), the solubility thermodynamic at 2 h ([7]; pH 6.8, aqueous buffer) was 0.003 µg/mL (≈ 0.00692 µM) and the solubility thermodynamic at 2 h ([7]; pH 7.4, aqueous buffer) was 0.001 µg/mL (≈ 0.00231 µM). The solubility thermodynamic at 2 h ([7]; pH 8, aqueous buffer) was 0.001 µg/mL (≈ 0.00231 µM).
